Drawing on PubChem BioAssay (NCI), this text covers GI50 and TGI for eight compounds.

Test systems include CCRF-CEM leukemia; MALME-3M melanoma; HCT-116 colon; KM12 colon; OVCAR-8 ovarian; RXF 393 renal; SNB-19 CNS; M14 melanoma; UACC-257 melanoma; COLO 205 colon.
Common to all, as to test: NCI tumour cell line growth inhibition, 48 h

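Cells were grown in 96-well plates and exposed to each compound for 48 hours at five concentrations; endpoints were interpolated linearly between bracketing concentrations, or set to the highest concentration if not reached. At the GI50, growth is halved. TGI: concentration producing complete growth inhibition.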

On to `CCOC(=O)c1cn2ncnc(Oc3ccc(NC(=O)NCCN(CC)CC)c(Cl)c3)c2c1C`, for which the GI50 was 2.33 µM with CCRF-CEM leukemia; 1.7 µM in the experiment on MALME-3M melanoma; 2 µM in the experiment on HCT-116 colon; 10.8 µM in the experiment on KM12 colon; 5.66 µM with OVCAR-8 ovarian; 1.63 µM with RXF 393 renal. Moreover, the GI50 with SNB-19 CNS was 10.5 µM; in the experiment with M14 melanoma it was 1.89 µM; with UACC-257 melanoma, 1.89 µM; with COLO 205 colon it was 2.01 µM. Further, the TGI in the experiment on CCRF-CEM leukemia is 6.73 µM; with MALME-3M melanoma it was 3.3 µM; with HCT-116 colon, 4.75 µM; in the experiment on KM12 colon, 49.5 µM; in the experiment with OVCAR-8 ovarian it was greater than 100 µM; in the experiment on RXF 393 renal it was 3.37 µM. For the same compound, the TGI in the experiment with SNB-19 CNS came to 28.1 µM; with M14 melanoma it was 3.75 µM; in the experiment on UACC-257 melanoma it was 4.05 µM; in the experiment with COLO 205 colon, 3.78 µM.

As for `O=C1C(Nc2cccc(O)c2)=C(Sc2ccc(Cl)cc2)C(=O)N1Cc1ccccc1`, the GI50 in the experiment on CCRF-CEM leukemia was 4.08 µM; in the experiment on MALME-3M melanoma it was 3.81 µM; in the experiment with HCT-116 colon it was 5.45 µM; in the experiment on KM12 colon, 10.6 µM; with OVCAR-8 ovarian it was 6.03 µM; in the experiment on RXF 393 renal, 3.9 µM. Besides, the GI50 is 25.1 µM with SNB-19 CNS, 6.94 µM with M14 melanoma and 28.2 µM in the experiment on COLO 205 colon. For the same compound, the TGI was 34.8 µM in the experiment with CCRF-CEM leukemia; 17.8 µM with MALME-3M melanoma; 33.2 µM in the experiment with HCT-116 colon; 27.8 µM in the experiment on KM12 colon; 34.8 µM with OVCAR-8 ovarian; 21.2 µM with RXF 393 renal. Also, the TGI was greater than 100 µM with SNB-19 CNS, 38.5 µM with M14 melanoma and greater than 100 µM in the experiment on COLO 205 colon.

On to `Cc1cc(S(=O)(=O)Nc2nc3ccsc3c(=O)n2Cc2ccccc2)c(S)cc1Cl`, for which the GI50 is 34 µM in the experiment on CCRF-CEM leukemia; 21.2 µM with MALME-3M melanoma; 19.2 µM with HCT-116 colon; 20.1 µM in the experiment on KM12 colon; 44.5 µM in the experiment on OVCAR-8 ovarian; 44 µM in the experiment with RXF 393 renal. For the same compound, the GI50 is 32.4 µM in the experiment on SNB-19 CNS, 21.8 µM in the experiment with M14 melanoma, 47.8 µM in the experiment with UACC-257 melanoma and 37.5 µM with COLO 205 colon. The TGI is greater than 100 µM with CCRF-CEM leukemia; 50.1 µM in the experiment with MALME-3M melanoma; 37.7 µM with HCT-116 colon; 48.2 µM in the experiment with KM12 colon; greater than 100 µM in the experiment with OVCAR-8 ovarian; greater than 100 µM in the experiment with RXF 393 renal. Further, the TGI with SNB-19 CNS was greater than 100 µM; in the experiment on M14 melanoma, 49.6 µM; in the experiment on UACC-257 melanoma, greater than 100 µM; with COLO 205 colon, greater than 100 µM.

For the compound `Cc1ccc(C(=O)Nc2ccccc2C(=O)N/N=C(\c2ccccc2)c2ccccn2)cc1`, the GI50 in the experiment on CCRF-CEM leukemia is 0.167 µM; with MALME-3M melanoma, 0.752 µM; in the experiment on HCT-116 colon, 0.348 µM; with KM12 colon, 0.388 µM; in the experiment on OVCAR-8 ovarian, 0.377 µM; in the experiment on RXF 393 renal, 1.53 µM. The GI50 is 0.554 µM in the experiment on SNB-19 CNS, 0.272 µM in the experiment on M14 melanoma, 0.999 µM in the experiment on UACC-257 melanoma and 0.334 µM in the experiment with COLO 205 colon. Further, the TGI in the experiment with CCRF-CEM leukemia, in the experiment with MALME-3M melanoma, in the experiment on HCT-116 colon, in the experiment on KM12 colon, in the experiment with OVCAR-8 ovarian and in the experiment with RXF 393 renal was greater than 100 µM each time. For the same compound, the TGI was greater than 100 µM in the experiment with SNB-19 CNS, 3.26 µM in the experiment with M14 melanoma, greater than 100 µM with UACC-257 melanoma and greater than 100 µM in the experiment on COLO 205 colon.

For `CCCCCCCCCCC(CN(CC)CC)C(O)c1ccccc1` (centres undefined), the GI50 with CCRF-CEM leukemia was 1.82 µM; with MALME-3M melanoma, 1.95 µM; with HCT-116 colon it was 1.72 µM; in the experiment with KM12 colon, 1.83 µM; in the experiment on OVCAR-8 ovarian, 2.37 µM; in the experiment on RXF 393 renal it was 1.5 µM. For the same compound, the GI50 in the experiment on SNB-19 CNS was 1.86 µM; in the experiment with M14 melanoma, 1.74 µM; in the experiment on UACC-257 melanoma, 2.64 µM; in the experiment with COLO 205 colon, 1.81 µM. Moreover, the TGI in the experiment on CCRF-CEM leukemia turned out to be 4.89 µM; in the experiment on MALME-3M melanoma, 3.85 µM; with HCT-116 colon, 3.37 µM; in the experiment on KM12 colon, 3.39 µM; with OVCAR-8 ovarian, 5.83 µM; with RXF 393 renal, 3.05 µM. Further, the TGI with SNB-19 CNS amounted to 3.77 µM; in the experiment on M14 melanoma, 3.4 µM; in the experiment on UACC-257 melanoma, 5.78 µM; with COLO 205 colon it was 3.7 µM.

For `N=C(N)Cn1cnc2ccccc21`, the TGI in the experiment with CCRF-CEM leukemia, in the experiment on MALME-3M melanoma, in the experiment on KM12 colon, in the experiment with OVCAR-8 ovarian, in the experiment with RXF 393 renal and with SNB-19 CNS was greater than 100 µM in each case. Further, the TGI with M14 melanoma, in the experiment on UACC-257 melanoma and in the experiment on COLO 205 colon was greater than 100 µM throughout.

On to `CN(C(=O)C1CC1)C1C2CN3CCC(O2)C13` (centres undefined), for which the TGI with CCRF-CEM leukemia, in the experiment on MALME-3M melanoma, in the experiment with HCT-116 colon, in the experiment on KM12 colon, in the experiment on RXF 393 renal and with SNB-19 CNS was greater than 100 µM in each case. The TGI in the experiment on M14 melanoma, in the experiment on UACC-257 melanoma and with COLO 205 colon was greater than 100 µM in each case.

Turning to `CCC[CH2][Sn]1([CH2]CCC)[O]CC([CH2][Sn]([c]2ccccc2)([c]2ccccc2)[c]2ccccc2)[O]1` (centres undefined), the GI50 in the experiment on CCRF-CEM leukemia was 2.26 µM; in the experiment with MALME-3M melanoma it was 13.6 µM; with KM12 colon, 12.2 µM; with OVCAR-8 ovarian it was 15.2 µM; with RXF 393 renal, 3.21 µM; in the experiment with SNB-19 CNS it was 15.1 µM. For the same compound, the GI50 in the experiment on M14 melanoma is 15.9 µM; in the experiment with UACC-257 melanoma, 12.6 µM; in the experiment with COLO 205 colon, 10.4 µM. Further, the TGI with CCRF-CEM leukemia was 20.8 µM; with MALME-3M melanoma, 26.4 µM; in the experiment with KM12 colon, 25.3 µM; with OVCAR-8 ovarian it was 34 µM; with RXF 393 renal, 15.4 µM; in the experiment with SNB-19 CNS it was 28.6 µM. Moreover, the TGI stood at 31.4 µM with M14 melanoma, 26.6 µM in the experiment on UACC-257 melanoma and 23 µM in the experiment on COLO 205 colon.
